Counter-ions that a name gives are not always drawn.

17 molecules from patent publication US20230141284A1, “CANCER THERAPEUTIC METHOD” (ONO PHARMACEUTICAL CO., LTD., priority 2020, published 2023) can be followed below.

A short description of series [1]: Conversion of a prodrug to its active body (Compound B) in human plasma. The class given is in vitro ADME. Particulars: 1 μmol/L, 37° C., 60 minutes. The procedure: (§1) The solutions of the example compounds in Table 2 below (50 μmol/L, 50% acetonitrile with 5% DMSO) were added to plasma (245 μL), respectively, such that the final concentrations thereof become 1 μmol/L. After keeping them the temperature at 37° C. for 60 minutes, 40 μL of the reaction solutions were taken therefrom, and added to 200 μL of acetonitrile/ethanol (7:3) containing Candesartan (internal standard).
(§2) The concentration of the compound prepared in Example 3 (Compound B) in the plasma resulting from the above reaction was analyzed by LC-MS/MS according to the following method.
(§3) The whole amount was transferred to a filter plate for protein removal and filtered by suction, and the filtrate thereof was diluted 2-fold with water. [LC column] Shim-pack XR-ODSII 2.0 mm ID×75 mm (Shimadzu Corporation) [LC condition] Column temperature: 40° C. Mobile phase: A: 0.2% formic acid in 5 mM ammonium acetate solution; and
(§4) [MS conditions] Electrospray, positive mode, multiple reaction monitoring; MS monitor ion: Compound B: m/z353.0→m/z311.2, DP: 80, CE: 35; and Candesartan (internal standard): m/z309.1→m/z163.0, DP: 71, CE: 21.
(§5) A regression formula was calculated from the peak area ratio (peak area of Compound B/peak area of Candesartan) of the real sample and the standard sample for the calibration curve in the same matrix, and the peak area ratio of the real sample was substituted into the regression formula to calculate the quantitative value. 60 minutes later, the concentration of Compound B in the sample was compared, and the conversion rate (%) thereof was calculated using the following formula:
(§6) Conversion rate (%)=Concentration of Compound B in the sample after 60 minutes (μmol/L)×100

Series [2] in a line: Conversion of a prodrug to its active body (Compound B) in mouse plasma. The class given is in vitro ADME. Particulars: 1 μmol/L, 37° C., 60 minutes. The procedure:
as §1, §2, §3, §4, §5, §6

The test system of series [3] is IRF (Interferon Regulatory Factor) pathway. The series can be described thus: Effect on IRF (Interferon Regulatory Factor) pathway, Quanti-luc reporter cells. The class given is cell-based. Particulars: activation of the IRF pathway, luminescence, about 24 hours incubation. Here is the method: The cells mainly described at lines 12-20 of the right column on page 183 in Mol Immunol. 2017, Vol. 90, p. 182-189 were suspended in RPMI medium to prepare 2×10^6 cells/mL of cell suspension. 50 μL of the cell suspensions were dispensed into a 96-well plate, to which 50 μL of 6 to 20,000 nmol/L compound solutions were added. After adding the compound, the mixture thereof was incubated at 37° C. for about 24 hours. After incubation, 10 μL of cell suspensions were collected from each well, which were mixed with 50 μL of Quanti-luc (Invivogen). Then, the activation of the IRF pathway was measured by detecting luminescence using a microplate reader (Molecular Devices).

For the molecule `CC(=O)c1cc(-c2ncc(-c3cnn(COC(=O)N4CCC(N5CCCCC5)CC4)c3)c3onc(N)c23)c(F)cc1N` [Example 12, (4-(4-(5-acetyl-4-amino-2-fluorophenyl)-3-aminoisoxazolo[4,5-c]pyridin-7-yl)-1H-pyrazol-1-yl)methyl [1,4′-bipiperidine]-1′-carboxylate], the “Plasma conversion rate Human” value in series [1] is given as “+ (the conversion rate of each example compound in the table to Compound B is less than 25%)”. The “Plasma conversion rate Mouse” value in series [2] is recorded as “+ (the conversion rate of each example compound in the table to Compound B is less than 25%)”.
In the case of `CC(=O)c1cc(-c2ncc(-c3cnn(COC(=O)OC[C@H]4OC(O)[C@H](O)[C@@H](O)[C@@H]4O)c3)c3onc(N)c23)c(F)cc1N` (stereo partly drawn) [Example 12(5), (4-(4-(5-acetyl-4-amino-2-fluorophenyl)-3-aminoisoxazolo[4,5-c]pyridin-7-yl)-1H-pyrazol-1-yl)methyl (((2R,3S,4S,5R)-3,4,5,6-tetrahydroxytetrahydro-2H-pyran-2-yl)methyl) carbonate], the “Plasma conversion rate Human” value in series [1] is reported as “+ + +”. Further, the “Plasma conversion rate Mouse” value in series [2] was “+ + +”.
As to `COC(=O)n1cc(-c2cnc(-c3cc(C(C)=O)c(N)cc3F)c3c(N)noc23)cn1` [Example 12(10), methyl 4-(4-(5-acetyl-4-amino-2-fluorophenyl)-3-aminoisoxazolo[4,5-c]pyridin-7-yl)-1H-pyrazole-1-carboxylate], the “Plasma conversion rate Human” value in series [1] is listed as “+ + +”. Moreover, the “Plasma conversion rate Mouse” value in series [2] is “+ + +”.
Take `CNCC(=O)OCc1cccnc1N(C)C(=O)OCn1cc(-c2cnc(-c3cc(C(C)=O)c(N)cc3F)c3c(N)noc23)cn1.Cl` [Example 12(3), 2-((2-((((4-(4-(5-acetyl-4-amino-2-fluorophenyl)-3-aminoisoxazolo[4,5-c]pyridin-7-yl)-1H-pyrazol-1-yl)methoxy)carbonyl)(methyl)amino)pyridin-3-yl)methoxy)-N-methyl-2-oxoethane-1-ammonium chloride]: in series [1], the “Plasma conversion rate Human” value is “+ + +”. The “Plasma conversion rate Mouse” value in series [2] is “+ + +”.
On to `CC(=O)c1cc(-c2ncc(-c3cnn(COP(=O)(O)OCOC(=O)OC(C)C)c3)c3onc(N)c23)c(F)cc1N` [Example 12(11), ((((4-(4-(5-acetyl-4-amino-2-fluorophenyl)-3-aminoisoxazolo[4,5-c]pyridin-7-yl)-1H-pyrazol-1-yl)methoxy)(hydroxy)phosphoryl)oxy)methyl isopropyl carbonate], for which, in series [1], the “Plasma conversion rate Human” value is recorded as “+ (the conversion rate of each example compound in the table to Compound B is less than 25%)”. Besides, the “Plasma conversion rate Mouse” value in series [2] is “+ (the conversion rate of each example compound in the table to Compound B is less than 25%)”.
With `CC(=O)c1cc(-c2ncc(-c3cnn(COC(=O)N(C)c4ncccc4COP(=O)(O)O)c3)c3onc(N)c23)c(F)cc1N` [Example 12(1), (4-(5-(5-acetyl-4-amino-2-fluorophenyl)-3-aminoisoxazolo[4,5-c]pyridin-7-yl)-1H-pyrazol-1-yl)methyl methyl(3-((phosphonooxy)methyl)pyridin-2-yl)carbamate], the “Plasma conversion rate Human” value in series [1] was “+ +”. For the same molecule, in series [2], the “Plasma conversion rate Mouse” value was “+ (the conversion rate of each example compound in the table to Compound B is less than 25%)”.
As usually defined, the EC50 is the concentration needed to bring the measured effect to its halfway point. A higher EC50 goes with a less potent agent. As to `CCC(=O)c1cc(-c2ncc(-c3cn[nH]c3)c3onc(N)c23)c(F)cc1N` [Example 4(7), 1-(2-amino-5-(3-amino-7-(1H-pyrazol-4-yl)isoxazolo[4,5-c]pyridin-4-yl)-4-fluorophenyl)propan-1-one hydrochloride], the midpoint of the response in series [3], the EC50, lay at 20 nM.
For `CCNC(=O)c1cc(-c2ncc(-c3cn[nH]c3)c3onc(N)c23)c(F)cc1N` [Example 4(8), 2-amino-5-(3-amino-7-(1H-pyrazol-4-yl)isoxazolo[4,5-c]pyridin-4-yl)-N-ethyl-4-fluorobenzamide hydrochloride], a half-maximal effect in series [3] (EC50) was put at 20 nM.
Take `CSc1cc(-c2ncc(-c3cn[nH]c3)c3onc(N)c23)c(Cl)cc1N` [Example 4(16), 4-(4-amino-2-chloro-5-(methylthio)phenyl)-7-(1H-pyrazol-4-yl)isoxazolo[4,5-c]pyridin-3-amine hydrochloride]: the EC50 in series [3] was 1000 nM.
As for `NC(=O)c1cc(-c2ncc(-c3cn[nH]c3)c3onc(N)c23)c(F)cc1N` [Example 4(5), 2-amino-5-(3-amino-7-(1H-pyrazol-4-yl)isoxazolo[4,5-c]pyridin-4-yl)-4-fluorobenzamide hydrochloride], in series [3], it took 80 nM to reach a half-maximal effect (EC50).
Same read-out and setting: next, `CCOC(=O)c1cc(-c2ncc(-c3cn[nH]c3)c3onc(N)c23)c(F)cc1N` [Example 4(6), ethyl 2-amino-5-(3-amino-7-(1H-pyrazol-4-yl)isoxazolo[4,5-c]pyridin-4-yl)-4-fluorobenzoate hydrochloride]: 40 nM.
As to `CC(=O)c1cc(-c2ncc(-c3cnn(COC(=O)OC[C@H]4OC(O)[C@H](N)[C@@H](O)[C@@H]4O)c3)c3onc(N)c23)c(F)cc1N.Cl` (stereo partly drawn) [Example 12(6), (4-(4-(5-acetyl-4-amino-2-fluorophenyl)-3-aminoisoxazolo[4,5-c]pyridin-7-yl)-1H-pyrazol-1-yl)methyl (((2R,3S,4R,5R)-5-amino-3,4,6-trihydroxytetrahydro-2H-pyran-2-yl)methyl) carbonate hydrochloride], in series [1], the “Plasma conversion rate Human” value is “+ + +”. Also, in series [2], the “Plasma conversion rate Mouse” value is given as “+ + +”.
As to `CNCC(=O)OCc1cccnc1N(C)C(=O)OC(C)n1cc(-c2cnc(-c3cc(C(C)=O)c(N)cc3F)c3c(N)noc23)cn1` (stereo not drawn) [Example 12(2), (2-(((1-(4-(5-(5-acetyl-4-amino-2-fluorophenyl)-3-aminoisoxazolo[4,5-c]pyridin-7-yl)-1H-pyrazol-1-yl)ethoxy)carbonyl)(methyl)amino)pyridin-3-yl)methyl methylglycinate], the “Plasma conversion rate Human” value in series [1] is on record as “+ + +”. Further, the “Plasma conversion rate Mouse” value in series [2] is reported as “+ + +”.
The molecule `CNC(=O)c1cc(-c2ncc(-c3cn[nH]c3)c3onc(N)c23)ccc1N` [Example 4(15), 2-amino-5-(3-amino-7-(1H-pyrazol-4-yl)isoxazolo[4,5-c]pyridin-4-yl)-N-methylbenzamide hydrochloride] gave an EC50 in series [3] of 100 nM.
For `CC(=O)c1cc(-c2ncc(-c3cnn(COC(=O)OCCN4CCOCC4)c3)c3onc(N)c23)c(F)cc1N.Cl` [Example 12(4), (4-(4-(5-acetyl-4-amino-2-fluorophenyl)-3-aminoisoxazolo[4,5-c]pyridin-7-yl)-1H-pyrazol-1-yl)methyl (2-morpholinoethyl)carbonate hydrochloride], the “Plasma conversion rate Human” value in series [1] is recorded as “+ + +”. Further, the “Plasma conversion rate Mouse” value in series [2] was “+ + +”.
In series [3], `CSc1cc(-c2ncc(-c3cn[nH]c3)c3onc(N)c23)c(F)cc1N` [Example 4, 4-(4-amino-2-fluoro-5-(methylthio)phenyl)-7-(1H-pyrazol-4-yl)isoxazolo[4,5-c]pyridin-3-amine hydrochloride] yielded an EC50 of 90 nM.
`CC(=O)c1cc(-c2ncc(-c3cnn(C(=O)NCC(=O)O)c3)c3onc(N)c23)c(F)cc1N` [Example 12(9), (4-(4-(5-acetyl-4-amino-2-fluorophenyl)-3-aminoisoxazolo[4,5-c]pyridin-7-yl)-1H-pyrazole-1-carbonyl)glycine]: the “Plasma conversion rate Human” value in series [1] is reported as “+ (the conversion rate of each example compound in the table to Compound B is less than 25%)”. Besides, the “Plasma conversion rate Mouse” value in series [2] is reported as “+ (the conversion rate of each example compound in the table to Compound B is less than 25%)”.
